The target of one assay is T1, Full-length human PIM-1 (Homo sapiens, UniProt P11309).
T1 construct: Full-length human PIM-1 was expressed and purified; made in house
As to the kind of experiment: Biochemical assay for inhibitors of PIM-1 kinase activity (trans-phosphorylation, Dowex resin, 33P-ATP). Conditions: ATP 200 μM, enzyme 1 nM, Aktide 25 μM. As for the experimental part: Biochemical assay for inhibitors of PIM-1 kinase activity
The inhibitory activity of putative kinase inhibitors and the potency of selected compounds were determined using a trans-phosphorylation assay.
Specific peptide or protein substrates are trans-phosphorylated by their specific ser-thr or tyr kinase in the presence of ATP traced with ^33P-γ-ATP, and in the presence of their own optimal buffer and cofactors.
At the end of the phosphorylation reaction, more than 98% unlabeled ATP and radioactive ATP is captured by an excess of the ion exchange Dowex® resin; the resin then settles down to the bottom of the reaction plate by gravity.
Supernatant is subsequently withdrawn and transferred into a counting plate, then evaluated by β-counting.
The buffer for PIM-1 assay was composed of HEPES 50 mM, at pH 7.5, with 10 mM MgCl2, 1 mM DTT, 3 μM NaVO3, and 0.2 mg/ml BSA
Full-length human PIM-1 was expressed and purified as described in Bullock A N, et al., J. Biol. Chem. 2005, 280, 41675-82.
1.7 μM PIM1 was incubated 1 hour RT at 28° C. in the presence of 125 μM ATP
ATP concentration: 200 μM
Enzyme concentration: 1 nM
Substrate concentration Aktide (Chemical Abstract Service Registry Number 324029-01-8): 25 μM
The test mix consisted of:
1) 3× Enzyme mix (done in Kinase Buffer 3×), 5 μL/well
2) 3× substrate and ATP mix (done in ddH2O), together with ^33P-γ-ATP, 5 μL/well
3) 3× test compounds (diluted into ddH2O—3% DMSO)-5 μL/well
For IC50 determination, test compounds are received as a 1 mM solution in 100% DMSO and distributed into 96-well plates: compounds are then plated into the first column of a new 96-well plate (A1 to G1), 100 μl/well.
An automated station (Biomek FX®, Beckman) is used for serial dilutions, producing 1:3 dilutions in 100% DMSO, from line A1 to A10, for all the compounds in the column. Moreover, 4-5 copies of daughter plates are prepared by reformatting 5 μL of this first set of 100% DMSO dilution plates into 384-deep well plates: one copy of these serial dilution plates with the test compounds is thawed on the day of study, reconstituted at the working concentration (3-fold the final concentration) with 162 μL/well of water and used for IC50 determination assays. In a standard experiment, the highest concentration (3×) of compounds is typically 30 μM, while the lowest one is typically 1.5 nM.
Each 384-well plate generates at least one curve of the standard inhibitor staurosporine and reference wells (total enzyme activity vs. no enzymatic activity) for evaluation of Z′ and signal to background (S/B) ratio.
384-well plates, V bottom (test plates) are prepared with 5 μl of compound diluted as previously described (3×) and then placed onto a PlateTrak® 12 robotized station (Perkin Elmer; the robot has one 384-tip pipetting head for assay start, plus one 96-tip head for dispensing resin) together with one reservoir for Enzyme mix (3×) and one for ATP mix (3×).
Data are analyzed by an internally customized version of the “Assay Explorer®” SW package, which provides sigmoidal fitting of the ten-dilution curves for IC50 determination in secondary assay/hit confirmation routines.

In a further assay the target is T2, Full-length human PIM-2 (Homo sapiens, UniProt Q9P1W9).
T2 construct: Full-length human PIM-2 was expressed and purified; made in house
T2 sequence (Q9P1W9 whole entry): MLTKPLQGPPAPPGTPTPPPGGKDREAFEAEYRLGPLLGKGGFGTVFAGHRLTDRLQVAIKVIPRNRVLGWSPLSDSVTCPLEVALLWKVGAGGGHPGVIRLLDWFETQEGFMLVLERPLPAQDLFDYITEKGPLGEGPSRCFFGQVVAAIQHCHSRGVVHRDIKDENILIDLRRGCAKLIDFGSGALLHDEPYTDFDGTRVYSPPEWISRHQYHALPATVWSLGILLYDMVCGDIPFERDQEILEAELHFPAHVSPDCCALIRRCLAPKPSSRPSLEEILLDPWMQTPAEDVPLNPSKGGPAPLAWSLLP
Description: PIM-2 kinase inhibition assay: Dowex technique. The assay is classed as biochemical. Conditions: ATP 4 μM, enzyme 1.5 nM, Aktide 5 μM. On the procedure: Method for PIM-2 Kinase Inhibition Assay: Dowex Technique
The buffer for PIM-2 assay was composed of HEPES 50 mM, at pH 7.5, with 1 mM MgCl2, 1 mM DTT, 3 μM Na3VO4, and 0.2 mg/ml BSA
Full-length human PIM-2 was expressed and purified as described in Fedorov O, et al. (2007) PNAS 104, 51, 20523-28.
Assay Conditions (Final Concentrations):
Enzyme concentration=1.5 nM
Aktide substrate (Chemical Abstract Service Registry Number 324029-01-8)=5 μM
See above: same procedure as described for PIM-1.

The subject of the next assay is BaF3 parental line. As to the kind of experiment: In vitro cell proliferation potency assay, BaF3 parental line with IL-3 (Cell Titer Glo). The assay is classed as cell-based, murine. Conditions: Mus musculus; BaF3 parental cells with mIL-3, incubated overnight; read-out: Prolif BaF3 IL3 (EC50). The source says:
(§1) BaF3 is a murine interleukin-3 dependent pro-B cell line, useful as a model system for assessing both the potency and downstream signaling of kinase oncogenes (“Ba/F3 cells and their use in kinase drug discovery”, Warmuth, M, et al, (January 2007) Current Opinion in Oncology, Vol 19(1):55-60). BaF3 parental line was obtained from the DSMZ repository. BaF3 lines transfected with PIM1 or PIM2 were generated. Mouse IL-3 was purchased from R&D Systems. G418 was purchased from Clontech. Media for BaF3 parental line contained RPMI, 10% FBS, 2 mM L-Glutamine, 2 ng/mL mIL-3. Media for BaF3 PIM1 & 2 lines contained RPMI, 10% FBS, 2 mM L-Glutamine, […]. Media for MM1.S (multiple myeloma cells) line contained RPMI, 10% FBS, 2 mM L-Glutamine.
(§2) Parental cells, BaF3 PIM1 cells, BaF3 PIM2 cells, and MM1.S (multiple myeloma) cells were seeded at 2 k/well, 5 k/well, 5 k/well, and 10 k/well respectively, in a 384-well plate, at 45 μL/well. Test compound was added at 5 μL/well. BaF3 cells (parental and transfected) were incubated overnight, while MM1.S cells were incubated for 72 hours at 37° C., 5% CO2. CELL TITER GLO® Reagent (Promega) was added at 50 μL/well, the plates were incubated for 30 minutes, and their luminescence read on an HT Analyst. IC50/EC50 values for the test compound were calculated.
On the technique in general: In ATP-based viability assays light output follows the ATP content of the culture.

The subject of the next assay is BaF3 PIM1 cells. As to the kind of experiment: In vitro cell proliferation potency assay, BaF3 transfected with PIM1 (Cell Titer Glo). In kind it is cell-based, murine. Conditions: Mus musculus, incubated overnight, read-out: Prolif BaF3 PIM1 (EC50).
Excerpt: as §1, §2

The subject of assay [1] is MV-4-11 (biphenotypic B myelomonocytic leukemia) cells. Description: In vitro cell proliferation assay (CellTiter-Glo). The assay is classed as cell-based. Conditions: Homo sapiens, MV4-11, antiproliferative activity, 72 hours. On the procedure:
In Vitro Cell Proliferation Assay:
MV-4-11 (biphenotypic B myelomonocytic leukemia) cells (1250 cells/well) were seeded in white 384 well-plates in complete medium (RPMI 1640 or EMEM plus 10% Fetal bovine serum) and treated with compounds dissolved in 0.1% DMSO, 24 h after seeding. The cells were incubated at 37° C. and 5% CO2 and after 72 hours the plates were processed using CellTiter-Glo® assay (Promega) following the manufacturer's instruction. CellTiter-Glo® is a homogenous method based on the quantification of the ATP present, an indicator of metabolically active cells. ATP is quantified using a system based on luciferase and D-luciferin resulting into light generation. The luminescent signal is proportional to the number of cells present in culture.
Briefly 25 μl/well reagent solution was added to each wells and after 5 minutes shacking microplates were red by Envision® (PerkinElmer) luminometer. The luminescent signal was proportional to the number of cells present in culture.
Inhibitory activity was evaluated comparing treated versus control data using Assay Explorer (MDL) program. IC50 was calculated using sigmoidal interpolation curve.

The test system of assay [2] is phosphorylation of BAD at Ser112 by PIM kinases. Description: Western blot of phospho-BAD (Ser112) in MV-4-11 cells. Conditions: different concentrations, 3 hours, compared to DMSO treated cells, FIG. 2. In kind it is cell-based, human. As for the experimental part:
To further establish that the cytotoxicity of the compounds of the present invention resulted from the inhibition of PIM kinases, we examined the phosphorylation of the pro-apoptotic protein BAD by PIM kinases in the presence or absence of PIM inhibitors in MV-4-11 leukemia cell lines.
MV-4-11 cells were plated in 6 well plates at 1.5×10^6 cells/ml and treated with different concentrations of PIM-inhibitors for 3 hours. Cells were harvested, washed with PBS buffer and lysed with lysis buffer (2% SDS, 100 mM Tris ph 7.5, 1:100 Phosphatase Inhibitor Cocktail 1 (SIGMA) and 1:100 Phosphatase Inhibitor Cocktail 2(SIGMA) and Complete Protease Inhibitor (Roche). The protein concentration in the lysates was quantified using the BCA Protein Assay Kit (Pierce). Equal amounts of protein were loaded onto 4-12% gradient Tri-glycine gel for SDS-PAGE analysis. Then the proteins were transferred to PVDF membranes (Millipore) for Western Blotting. Membranes were probed with the antibody for phospho-Bad (Ser112) (Cell Signaling Technologies).

T1 sequence (P11309 whole entry): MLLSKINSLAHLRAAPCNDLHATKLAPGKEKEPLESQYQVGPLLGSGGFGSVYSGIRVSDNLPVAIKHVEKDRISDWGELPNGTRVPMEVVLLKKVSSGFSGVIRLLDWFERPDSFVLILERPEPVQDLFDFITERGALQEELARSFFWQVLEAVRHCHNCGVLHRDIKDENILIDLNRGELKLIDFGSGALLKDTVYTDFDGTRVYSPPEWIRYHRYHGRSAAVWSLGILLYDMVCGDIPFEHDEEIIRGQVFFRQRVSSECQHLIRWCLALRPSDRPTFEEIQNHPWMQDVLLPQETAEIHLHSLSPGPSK

With `CSc1ncc2ccc3c(C(N)=O)nn(C4CCC(N)CC4)c3c2n1` (centres unmarked) [Compound 93, 1-(4-aminocyclohexyl)-8-(methylsulfanyl)-1H-pyrazolo[4,3-h]quinazoline-3-carboxamide], the concentration for half-maximal inhibition (IC50) (in general, the concentration that inhibits the measured activity by half) on Full-length human PIM-1 came to 1 nM; at Full-length human PIM-2 it was 1 nM; in assay [1], 448 nM. In addition, the concentration for a half-maximal effect (EC50) (as a rule, the midpoint of the concentration-response curve) amounted to 7900 nM in the assay with BaF3 parental line and 44 nM in the assay with BaF3 PIM1 cells.

Turning to `NC(=O)c1nn(C2CCC(N)CC2)c2c1ccc1cnc(-c3ccsc3)nc12` (centres unmarked) [Compound 112, 1-(4-aminocyclohexyl)-8-(thiophen-3-yl)-1H-pyrazolo[4,3-h]quinazoline-3-carboxamide], the 50% inhibitory concentration (IC50) against Full-length human PIM-1 was 300 nM; on Full-length human PIM-2 it was 43 nM. For the same molecule, the EC50 in the assay on BaF3 parental line was 2000 nM; in the assay with BaF3 PIM1 cells it was 1300 nM.

`CSc1ncc2ccc3c(C(N)=O)nn(C(C)CCN)c3c2n1` (centres unmarked) [Compound 102, 1-(4-aminobutan-2-yl)-8-(methylsulfanyl)-1H-pyrazolo[4,3-h]quinazoline-3-carboxamide]: the IC50 amounted to 1 nM at Full-length human PIM-1, 1 nM against Full-length human PIM-2 and 35 nM in assay [1].

As for `CSc1ncc2ccc3c(C(N)=O)nn(CCN)c3c2n1` [Compound 15, 1-(2-aminoethyl)-8-(methylsulfanyl)-1H-pyrazolo[4,3-h]quinazoline-3-carboxamide], the IC50 amounted to 143 nM against Full-length human PIM-1, 282 nM on Full-length human PIM-2 and 1430 nM in assay [1].

Take `CN1CCN(c2ccc(Oc3ncc4ccc5c(C(N)=O)nn(C(C)(C)C)c5c4n3)cc2)CC1` [Compound 51, 1-tert-butyl-8-[4-(4-methylpiperazin-1-yl)phenoxy]-1H-pyrazolo[4,3-h]quinazoline-3-carboxamide]: the concentration for half-maximal inhibition (IC50) came to 4 nM against Full-length human PIM-1, 15 nM at Full-length human PIM-2 and 192 nM in assay [1]. Moreover, the EC50 with BaF3 parental line was found to be 9300 nM; in the assay on BaF3 PIM1 cells, 210 nM.

Regarding `CSc1ncc2ccc3c(C(N)=O)nn(CC4CCCNC4)c3c2n1` (centres unmarked) [Compound 94, 8-(methylsulfanyl)-1-(piperidin-3-ylmethyl)-1H-pyrazolo[4,3-h]quinazoline-3-carboxamide], the figures for the IC50 (against Full-length human PIM-1; at Full-length human PIM-2; in assay [1]) were 80 nM, 311 nM and 534 nM, respectively.

Turning to `CN1CCN(c2ccc(Oc3ncc4ccc5c(C(N)=O)nn(C)c5c4n3)cc2)CC1` [Compound 26, 1-methyl-8-[4-(4-methylpiperazin-1-yl)phenoxy]-1H-pyrazolo[4,3-h]quinazoline-3-carboxamide], the IC50 at Full-length human PIM-1 was determined as 33 nM; against Full-length human PIM-2 it was 861 nM; in assay [1] it was 520 nM.

Consider `CSc1ncc2ccc3c(C(N)=O)nn(C(C)(C)C)c3c2n1` [Compound 85, 1-tert-butyl-8-(methylsulfanyl)-1H-pyrazolo[4,3-h]quinazoline-3-carboxamide], for which the results for the IC50 (against Full-length human PIM-1; on Full-length human PIM-2; in assay [1]) were 1 nM, 2 nM and 103 nM, respectively. In addition, in assay [2], the “levels of pBAD (s112) by western blot” value is given as “dose dependent reduction”. The figures for the EC50 with BaF3 parental line and in the assay with BaF3 PIM1 cells were 13000 nM and 310 nM, respectively.

For the molecule `CSc1ncc2ccc3c(C(N)=O)nn(C4CN5CCC4CC5)c3c2n1` (centres unmarked) [Compound 103, 1-(1-azabicyclo[2.2.2]oct-3-yl)-8-(methylsulfanyl)-1H-pyrazolo[4,3-h]quinazoline-3-carboxamide], the IC50 against Full-length human PIM-1 turned out to be 15 nM; against Full-length human PIM-2 it was 28 nM; in assay [1] it was 221 nM.

`CSc1ncc2ccc3c(C(N)=O)nn(CC4CCNCC4)c3c2n1` [Compound 17, 8-(methylsulfanyl)-1-(piperidin-4-ylmethyl)-1H-pyrazolo[4,3-h]quinazoline-3-carboxamide]: the IC50 against Full-length human PIM-1 amounted to 9 nM; against Full-length human PIM-2, 160 nM; in assay [1] it was 1540 nM.

For the molecule `CN1CCN(c2ccc(Oc3ncc4ccc5c(C(N)=O)nn(C)c5c4n3)c(F)c2)CC1` [Compound 36, 8-[2-fluoro-4-(4-methylpiperazin-1-yl)phenoxy]-1-methyl-1H-pyrazolo[4,3-h]quinazoline-3-carboxamide], the IC50 stood at 116 nM against Full-length human PIM-1, 694 nM against Full-length human PIM-2 and 940 nM in assay [1].

Consider `CN1CCN(c2ccc(Oc3ncc4c(n3)-c3c(c(C(N)=O)nn3C)CC4)cc2)CC1` [Compound 25, 1-methyl-8-[4-(4-methylpiperazin-1-yl)phenoxy]-4,5-dihydro-1H-pyrazolo[4,3-h]quinazoline-3-carboxamide], for which the IC50 against Full-length human PIM-1 is 776 nM; against Full-length human PIM-2, more than 10000 nM; in assay [1], more than 10000 nM.

Values taken from US8541576B2, “Substituted pyrazolo-quinazoline derivatives as kinase inhibitors” (Nerviano Medical Sciences SRL, priority 2010, dated 2013).
